Assay results published in US12642792B2, “CA2-IL15 fusion proteins for tunable regulation” (Obsidian Therapeutics, Inc., priority 2019, dated 2026).

Legend:
[1] = tested on: TIL; experiment: Expression of constitutive and regulated mbIL15 in TIL in response to ACZ (flow cytometry); format: cell-based, human; conditions: TIL transduced with IL15-293
Experimental: HEK293T cells were seeded on collagen coated tissue culture plates until 70% confluent. Cells were transfected with pELNS transfer vector carrying constitutive (IL15-292) or regulated (IL15-293) IL15 constructs, as well as packaging plasmids (pRSV.REV, pMDLg/pRRE and OT-BaEVg-002 (SEQ ID NO: 51)) using Lipofectamine 3000 transfection reagent in Opti-MEM media. Media was replaced 6-8 hrs post-transfection with serum-free media. Supernatants containing virus were harvested 24 hr post-transfection, fresh media was added, and supernatants were harvested again at 48 hr post-transfection. Viral supernatants were filtered to remove debris and concentrated by low speed ultracentrifugation. Virus were resuspended, aliquoted and stored at −80 C freezer.
96-well non-coated tissue culture plates were incubated with 35 μg per mL RetroNectin (Takara Bio) in PBS for 2 h at 37° C. or overnight at 4° C. RetroNectin was removed and the plates washed with PBS. […]
mbIL15 expression was determined by flow cytometry using two staining reagents: fluorochrome-conjugated anti-IL15 antibody as well as a recombinant protein comprised of extracellular domain of IL15Ra fused to human IgG1 Fc domain (IL15Ra-Fc). mbIL15+ cell frequency was determined based on co-staining with anti-IL15 and IL15Ra-Fc (identified as the IL15+IL15Ra-Fc+ double positive population).

[2] = tested on: cord blood-derived NK cells; experiment: Expression of constitutive and regulated mbIL15 in cord blood NK cells in response to ACZ (FACS); format: cell-based, human; conditions: NK cells transduced with IL15-293
Experimental: Cryopreserved mononuclear cell-fractionated cord blood units were obtained from BioBridge Global. Cord blood was diluted 1:1 with phosphate-buffered saline (PBS) and centrifuged over a cushion of Ficoll-Paque+(Sigma Cat. No. GE17-1440-02). The buffy coat comprising mononuclear cells (MNC) was collected, and the MNC were washed and counted. NK cells were isolated from MNC using EasySep Human NK Cell Isolation Kit (Stemcell Technologies Cat. No. 17955). NK cells were counted and checked for purity by FACS using CD56, CD16, CD3 and viability stain.
One day prior to NK cell isolation as described in Example 8, feeder cells (K562 cells expressing 4-1BBL and mbIL-21) were thawed in complete NK cell media (RPMI with Glutamax (ThermoFisher), 10% heat-inactivated fetal bovine serum (Gibco), 1× Penicillin/Streptomycin, 1 mM Sodium Pyruvate, 1×HEPES, 50 μM 2-Mercaptoethanol). On the day of NK cell isolation, 10×10^6 feeder cells were treated with mitomycin C to inhibit their proliferation and washed to remove excess drug. […] NK cell cultures were expanded by replenishing cell cultures with NK cell media and rhIL2 every two days, and analyzed by FACS for NK cell expansion. […]
mbIL15 expression was determined by flow cytometry using two staining reagents: IL15Ra-Fc and an anti-CD56 antibody. mbIL15+ cell frequency was determined relative to the number of NK cells as determined by the anti-CD56 antibody. […]

[3] = tested on: Human primary T cells; experiment: In vitro antigen-independent expansion of T cells expressing constitutive or ACZ-regulated mbIL15 (cell numbers by flow cytometry); format: cell-based; conditions: 2 ng/mL exogenous IL15
Experimental: Human primary T cells capable of expressing constitutive mbIL15 or ACZ-regulated mbIL15 were prepared in accordance with methods described in Example 1 above.
After T cell transduction and expansion, CD3/CD28 beads were removed using magnets, cells were washed twice, resuspended in fresh media and counted. Cells were plated in 12-well plates at 1×10^6 in 2 mL. One well of untransduced cells was cultured in the presence of 2 ng/mL IL15 as a control. T cells expressing regulated constructs were cultured in the absence or presence of acetazolamide (ACZ, 30, 10, 3, 1, 0.3 μM). Cell numbers were monitored by flow cytometry every 3-4 days and cells were cultured for 10-12 days. At each time point 100 μL of cells were collected from wells and analyzed by flow cytometry. Cells were split as needed. Cell cultures were maintained in 12-well plates by taking a portion and adding media in a new plate. Volumes for each well were recorded before and after split to calculate final volume in cell number assessment. IL15 or ACZ were replenished at final concentration of the fresh media added during each split.
T cell numbers were determined by flow cytometry. Empty vector (EV) transduced cell numbers decreased to background levels between 3-5 days in the absence of IL15, and cells expanded 11-fold in the presence of 2 ng/mL exogenous IL15 (FIG. 3A). […]

Molecule	Effect of ACZ on mbIL15 in transduced TIL [1]	Effect of ACZ on mbIL15 in transduced NK [2]	Expansion of empty vector (EV) transduced T cells in the presence of exogenous IL15 [3]
CC(=O)Nc1nnc(S(N)(=O)=O)s1 [ACZ, acetazolamide, reference compound]	induces CA2 DRD-regulated mbIL15 in transduced TIL	induces CA2 DRD-regulated mbIL15 in transduced NK	
exogenous IL15: exogenous IL15 (2 ng/mL) added to empty vector transduced T cells as control [reference compound]			11 -fold
